Assay results from PubChem BioAssay (NCI).
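A five-concentration, 48-hour dose response in 96-well plates underlies each endpoint, interpolated linearly between surrounding concentrations. The concentration for 50% growth inhibition is given as GI50. TGI is the concentration that stops growth completely.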

Tests used:
Test in all cases: growth of human tumour cells (NCI), 48 h
TK-10 renal = tested on: TK-10 renal
IGROV1 ovarian = tested on: IGROV1 ovarian
HOP-92 NSCLC = tested on: HOP-92 NSCLC
HCC-2998 colon = tested on: HCC-2998 colon
MOLT-4 leukemia = tested on: MOLT-4 leukemia
SN12C renal = tested on: SN12C renal
OVCAR-3 ovarian = tested on: OVCAR-3 ovarian
UO-31 renal = tested on: UO-31 renal
ACHN renal = tested on: ACHN renal
786-0 renal = tested on: 786-0 renal

Structure (SMILES)	GI50 (TK-10 renal) [µM]	TGI (TK-10 renal) [µM]	GI50 (IGROV1 ovarian) [µM]	TGI (IGROV1 ovarian) [µM]	GI50 (HOP-92 NSCLC) [µM]	TGI (HOP-92 NSCLC) [µM]	GI50 (HCC-2998 colon) [µM]	TGI (HCC-2998 colon) [µM]	GI50 (MOLT-4 leukemia) [µM]	TGI (MOLT-4 leukemia) [µM]	GI50 (SN12C renal) [µM]	TGI (SN12C renal) [µM]	GI50 (OVCAR-3 ovarian) [µM]	TGI (OVCAR-3 ovarian) [µM]	GI50 (UO-31 renal) [µM]	TGI (UO-31 renal) [µM]	GI50 (ACHN renal) [µM]	TGI (ACHN renal) [µM]	TGI (786-0 renal) [µM]
COc1ccc(-n2nc(C)c3c(Nc4ccc(NC(=O)Nc5ccc(Cl)c(C(F)(F)F)c5)cc4)ncnc32)cc1	2.88	12.3	2.23	7.23	1.81	5.2	2.22	5.64	1.82	7.49	2.63	9.37	1.98	5.91	1.7	3.69	1.64	6.86	
O=[N+]([O-])c1ccc2c(c1)c(N=NC(=S)Nc1ccc(Cl)cc1)c(O)n2CN1CCOCC1		24.5		18.1		21.2				2.97		15.7		17.6		15.7		16.4	16.7
O=S1(=O)C[C@@H](NCc2ccccc2)[C@H](NCc2ccccc2)C1		> 100		> 100		> 100		> 100		> 100		> 100		> 100		> 100		> 100	
C[n+]1c(/C=C/c2ccc(O)c3ncccc23)[se]c2ccccc21		10.9		> 37.8		22.3				> 22.7		16.1		4.5		18.3		8.54	24.4
COc1cc(C2c3cc4c(cc3[C@@H](Nc3ccc5c(c3)OCO5)C3COC(=O)[C@H]23)OCO4)cc(OC)c1O (some centres undefined)				35		8.37		3.42		0.236				22.2		9.7			
c1ccc2c(c1)CCCC/C2=N/OCC1CO1 (centres undefined)		> 100		> 100		69.2		> 100		> 100		> 100						> 100	
O=C1c2cccc(O)c2C(=O)c2c(OC3OC(CO)C(O)C(O)C3O)cccc21 (centres undefined)		> 100		> 100		> 100		59.6				> 100		> 100		> 100		> 100	> 100
O=C1c2cccc(O)c2C(=O)c2c(O)cc(CO)cc21		> 100				> 100		> 100		> 100		> 100						> 100	
C[C@H]1OC(=O)[C@@H]2N=NN(Cc3ccccc3)[C@H]12		> 100				> 100		> 100		> 100		> 100		> 100		> 100		> 100	> 100
CN1CCN(C2=C(Cl)C3(OCCS3)C(F)(F)C2(F)F)CC1 (centres undefined)		> 100		> 100		> 100				> 100		> 100		> 100		> 100		> 100	> 100
COc1cccc2c1OCC1Cc3ccccc3OC21 (centres undefined)		72.8		> 100				> 100		> 100		70.1		88.8		> 100			> 100
